“And” between values parts separate entries of the source, which are not always exact repeats. Identical values can stand only once.
Legend:
[1] = molecular target: T1, hNNMT (Homo sapiens, UniProt P40261); test: Fluorescence based NNMT enzymatic assay (human); assay type: biochemical; settings: recombinant human NNMT, fluorescence of an MNA derivative; for IC50: read-out: hNNMT IC50
T1 sequence (P40261 1-264): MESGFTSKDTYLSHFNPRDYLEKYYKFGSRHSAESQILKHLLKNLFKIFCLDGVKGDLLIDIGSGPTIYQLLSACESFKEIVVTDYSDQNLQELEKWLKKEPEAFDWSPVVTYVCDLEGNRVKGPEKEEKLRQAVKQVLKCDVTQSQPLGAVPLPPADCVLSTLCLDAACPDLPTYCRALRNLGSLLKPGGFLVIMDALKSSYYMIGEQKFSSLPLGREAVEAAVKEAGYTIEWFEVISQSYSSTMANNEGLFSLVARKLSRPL
Protocol: (§1) NNMT activity was measured by a fluorescence based assay as previously described. Briefly, Inhibitors were screened using human, mouse and monkey NNMT enzymes at different concentrations. The final assay reaction mixture contained a buffer of 100 mM Tris Hcl pH 7.5, 0.04% BSA, 2 mM Dithiothreitol and 1% DMSO. A fluorescent product 2, 7- naphthyridine was measured in a Tecan reader with excitation at 375 nm and emission at 430 nm. The IC50 values were determined by fitting the inhibition curves (percent inhibition versus inhibitor concentration) using a four parametric sigmoidal dose response in graph pad prism.

[2] = tested on: NNMT; settings: published NNMT inhibitor; cited from earlier work
[3] = molecular target: T2, mouse NNMT (Mus musculus, UniProt O55239); test: Fluorescence based NNMT enzymatic assay (mouse); assay type: biochemical; settings: recombinant mouse NNMT, fluorescence of an MNA derivative; read-out: mNNMT IC50
T2 sequence (O55239 1-264): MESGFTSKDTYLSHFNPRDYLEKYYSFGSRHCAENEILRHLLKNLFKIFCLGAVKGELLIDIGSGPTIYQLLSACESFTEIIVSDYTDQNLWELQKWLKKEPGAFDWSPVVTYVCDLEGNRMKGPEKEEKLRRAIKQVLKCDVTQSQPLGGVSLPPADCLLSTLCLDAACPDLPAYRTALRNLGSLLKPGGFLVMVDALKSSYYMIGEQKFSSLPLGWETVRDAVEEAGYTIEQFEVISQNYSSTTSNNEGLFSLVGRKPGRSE
Protocol: as §1

[4] = molecular target: T3, endogenous NNMT in U2OS cells (Homo sapiens, UniProt P40261); test: Cell based U2OS assay (endogenous NNMT, MNA by LC–MS/MS); settings: 24 h treatment; for EC50: read-out: Cell based inhibition in U2OS EC50
T3 construct: endogenous in cells; host or cells: U2OS (human bone osteosarcoma)
T3 sequence (P40261 1-264): T1 sequence (P40261 1-264)
Protocol: (§2) As next steps, cellular assays using the human U2OS cell line were carried out. This assay, described in[6], measures inhibition of endogenous NNMT, without recombinant expression, by quantification of MNA via LC–MS/MS. […] EC50 values were higher by a factor of ~ 30 compared to IC50 values on the isolated recombinant hNNMT, probably reflecting low cell membrane permeability.
The cell based assay with Human bone osteosarcoma (U2OS) cell line was performed using procedures described before (6). Briefly, the cells were seeded into a 96 well cell culture plate followed by incubation for 24 h at 37 °C, 5% CO2, and 95% humidity. Cell culture media was replaced with 100 µl of medium/ inhibitor mixture at different concentrations and incubated for another 24 h. The cells were processed and […] of supernatant was transferred into 96 well plate (Costar 3364) and analyzed by LC–MS/MS. The IC50 values were determined by fitting the inhibition curves (percent inhibition versus inhibitor concentration) using a four parametric sigmoidal dose response graph pad prism.

[5] = tested on: NNMT (endogenous MNA levels); test: Determination of MNA in cells (Target engagement); assay type: cell-based, human; settings: maximal MNA reduction relative to control without compound
Protocol: as §2

[6] = molecular target: T1, hNNMT; test: Thermal shift assay; settings: for shift in melting temperature (Tm) in presence of SAM / shift in melting temperature (Tm) in presence of SAH: hNNMT; for shift in melting temperature (Tm) in presence of SAM: 5 uM SAM, 10 uM compound; for shift in melting temperature (Tm) in presence of SAH: enzyme:SAH:compound ~ 1:5:10 (1 uM protein, 5 uM SAH, 10 uM compound)
Protocol: Thermal shift assay was performed to assess the binding of tricyclic compounds [(6) = JBSNF-000028, (8) = JBSNF-000107] to hNNMT prior to co-crystallization studies.

With `CN1Cc2cccc3c2N(CC3)C1=O` [(7), 2-methyl-1,2,5,6-tetrahydro-3H-pyrrolo[3,2,1-ij]quinazolin-3-one] as the compound, how does the “hNNMT IC50” value [1] read?
Its value is “inactive”.

With `CN1Cc2cccc3cccc(c23)C1=N` [(24)] as the compound, how does the IC50 [1] read?
Its IC50 is over 10000 nM.

Which IC50 [1] does the source give for `N=c1sc2cccc3c2n1CCC3` [A] here?
The IC50 was 1600 nM.

Which IC50 [1] does the source give for `CCn1c(=N)n2c3c(cccc31)CCC2` [B] here?
Its IC50 is 180 nM.

Which IC50 [2] does the source give for `CNc1ccc(C(N)=O)cn1` [Compound 28, 6-methylaminonicotinamide] here?
Its IC50 is 590 nM.

What does the source list for `CN1Cc2cccc3c2N(CCC3)C1=N` [Compound (1)]?
IC50 [1]: 130 ± 80 nM; IC50 [3]: 180 ± 10 nM; Cell based inhibition in U2OS EC50 [4]: active; EC50 [4]: 2500 ± 300 nM; % MNA reduction [5]: 30%

With `CN1Cc2cc(F)cc3c2N(CCC3)C1=N` [Compound (2)] as the compound, how does the IC50 [1] read?
Its IC50 is 59 ± 4 nM.

What about the IC50 [3] of the same compound?
The IC50 was 330 ± 130 nM.

What about the “Cell based inhibition in U2OS EC50” value [4] of the same compound?
Its value is “active”.

And the EC50 [4]?
The EC50 was 2200 ± 100 nM.

And the “% MNA reduction” value [5]?
The value was 21%.

What does the source list for `CN1Cc2c(F)c(F)cc3c2N(CCC3)C1=N` [Compound (3)]?
IC50 [1]: 200 nM and 190 nM; IC50 [3]: 1200 ± 750 nM; EC50 [4]: > 3000 nM; % MNA reduction [5]: 14%

Which IC50 [1] does the source give for `CN1Cc2cncc3c2N(CCC3)C1=N` [Compound (4)] here?
The IC50 was 360 ± 100 nM.

What about the IC50 [3] of the same compound?
Its IC50 is 770 ± 40 nM.

For `CN1Cc2cccc3c2N(CCCC3)C1=N` [Compound (5)], which IC50 [1] is on record?
Its IC50 is over 30000 nM.

With `CN1Cc2cc(F)cc3c2N(CC3)C1=N` [Compound (8)] as the compound, how does the IC50 [1] read?
Its IC50 is 38 nM and 39 nM.

And the IC50 [3]?
The IC50 was 1100 ± 500 nM.

And the EC50 [4]?
The EC50 was 1100 ± 200 nM.

What about the “% MNA reduction” value [5] of the same compound?
The value was 30%.

What about the “Tm in presence of SAH” value ([6]; hNNMT 1 uM, SAH 5 uM, compound 10 uM, protein with SAH alone Tm=39°C) of the same compound?
The value was 50 °C.

What about the “Tm in presence of SAM” value ([6]; hNNMT 1 uM, SAM 5 uM, compound 10 uM, protein with SAM alone Tm=38°C) of the same compound?
The value was 41 °C.

And the “shift in melting temperature (Tm) in presence of SAM” value ([6]; listed as JBSFN-107)?
The value was “up to 3 °C”.

What about the “shift in melting temperature (Tm) in presence of SAM” value ([6]; listed as JBSNF-000107) of the same compound?
The value was ~ 3 °C.

And the “shift in melting temperature (Tm) in presence of SAH” value ([6]; listed as JBSFN-107)?
Its value is “up to 11 °C”.

And the “shift in melting temperature (Tm) in presence of SAH” value ([6]; listed as JBSNF-000107)?
Its value is ~ 10 °C.

For `Br.CN1Cc2c(F)c(F)cc3c2N(CC3)C1=N` [Compound (9), 8,9-difluoro-2-methyl-1,2,5,6-tetrahydro-3H-pyrrolo[3,2,1-ij]quinazolin-3-imine hydrobromide], which IC50 [1] is on record?
Its IC50 is 490 ± 40 nM.

And the IC50 [3]?
The IC50 was over 3000 nM.

And the EC50 [4]?
Its EC50 is over 3000 nM.

And the “% MNA reduction” value [5]?
Its value is 43%.

Which IC50 [1] does the source give for `CN1Cc2ccc(F)c3c2N(CC3)C1=N` [Compound (11)] here?
The IC50 was over 1000 nM.

Which IC50 [1] does the source give for `CN1Cc2cccc3c2N(CCO3)C1=N` [Compound (12)] here?
The IC50 was 180 ± 20 nM.

What about the IC50 [3] of the same compound?
Its IC50 is 380 ± 20 nM.

For `CN1Cc2cccc3c2N(CCS3)C1=N` [Compound (13)], which IC50 [1] is on record?
The IC50 was 860 ± 60 nM.

What about the IC50 [3] of the same compound?
The IC50 was 200 ± 20 nM.

And the EC50 [4]?
Its EC50 is over 10000 nM.

And the “% MNA reduction” value [5]?
Its value is 40%.

Which IC50 [1] does the source give for `CN1Cc2cccc3c2N(CCN3C#N)C1=N` [Compound (14)] here?
Its IC50 is 250 ± 70 nM.

What about the IC50 [3] of the same compound?
The IC50 was 720 ± 70 nM.

Which IC50 [1] does the source give for `CC(=O)N1CCN2C(=N)N(C)Cc3cccc1c32` [Compound (15)] here?
The IC50 was over 30000 nM.

For `CN1Cc2cccc3c2N(CCN3C)C1=N` [Compound (16)], which IC50 [1] is on record?
The IC50 was over 30000 nM.

With `CN(C)C(=O)N1CCN2C(=N)N(C)Cc3cccc1c32` [Compound (17)] as the compound, how does the IC50 [1] read?
Its IC50 is over 30000 nM.

Which IC50 [1] does the source give for `Br.CN1Cc2cc(F)cc3c2N(CCO3)C1=N` [Compound (18)] here?
The IC50 was 69 ± 36 nM.

And the IC50 [3]?
The IC50 was over 3000 nM.

What about the EC50 [4] of the same compound?
The EC50 was 2500 ± 200 nM.

What about the “% MNA reduction” value [5] of the same compound?
The value was 30%.

With `CN1Cc2cc(F)cc3c2N(CCN3C)C1=N` [Compound (20)] as the compound, how does the IC50 [1] read?
Its IC50 is over 3000 nM.

What does the source list for `Br.N=C1N(CC(F)(F)F)Cc2cc(F)cc3c2N1CCO3` [Compound (21)]?
hNNMT IC50 [1]: inactive; IC50 [1]: > 30000 nM

With `Br.N=C1N(CCCc2ccccc2F)Cc2cccc3c2N1CCO3` [Compound (22)] as the compound, how does the “hNNMT IC50” value [1] read?
The value was “inactive”.

What about the IC50 [1] of the same compound?
The IC50 was over 30000 nM.

With `CN1Cc2cccc3ccn(c23)C1=N` [Compound (23)] as the compound, how does the IC50 [1] read?
The IC50 was over 30000 nM.

Which IC50 [1] does the source give for `CN1Cc2c3c(nn2C)CCCN3C1=N` [Compound (25)] here?
The IC50 was over 30000 nM.

Which IC50 [1] does the source give for `CN1Cc2nn(C)c3c2N(CCC3)C1=N` [Compound (26)] here?
Its IC50 is over 30000 nM.

For `CN1CCc2cccc3c2N(CC3)C1=N` [Compound (27)], which IC50 [1] is on record?
The IC50 was over 3000 nM.
